Measurements taken from patent US20090081639A1, “Assay for sensitivity to chemotherapeutic agents” (priority 2007, published 2009).
Converted amounts (≈) assume the structure as drawn.

What was measured:
Type in all cases: cell-based, human
THP-1 cells [1] = assay: MTT cell viability assay, Example 3; conditions: for MIC MTT / concentration at which cell death / inhibition was observed in the MTT assay: THP-1, approximately 48 hours; for MIC MTT: visual; for concentration at which cell death / inhibition was observed in the MTT assay: text of Example 3
[2] = system: THP-1 Acute myeloid leukemia cells; assay: Chemotherapeutic Sensitivity Assay (Gus and/or LacZ output), batch infection with GLV-1h68, Example 3; conditions: for MIC VV / LacZ/infection inhibition: THP-1, GLV-1h68 MOI 10, 24 hours, visual; for MIC VV: β-glucuronidase (Gus) output; for LacZ/infection inhibition: β-galactosidase output
THP-1 cells [3] = assay: Cell viability and growth assay (MTT reduction), Example 2; conditions: THP-1, approximately 48 hours, visual assessment
HL-60 cells [4] = assay: as above; conditions: HL-60, approximately 48 hours, visual assessment
KG1a cells [5] = system: KG1a cells
HL-60 cells [6] = system: HL-60 cells
KG1a cells [7] = assay: Cell viability and growth assay (MTT reduction), Example 2; conditions: approximately 48 hours, visual assessment
THP-1 cells [8] = system: THP-1 cells
[9] = THP-1, maximal concentration used
[10] = THP-1, next lowest concentration
[11] = THP-1, GLV-1h68, 24 hours, text of Example 3

Row | SMILES | MIC MTT (THP-1 cells [1]) | MIC VV [2] | concentration at which cell death / inhibition was observed in the MTT assay (THP-1 cells [1]) | concentration at which inhibition of β-glucuronidase expression was observed [2, 11] | LacZ/infection inhibition [2] | also measured
1 | O=c1[nH]cc(F)c(=O)[nH]1 [5-Fluorouracil, 5-fluorouracil] | 1.9 µM (≈ 0.247 µg/mL) | 1.9 µM (≈ 0.247 µg/mL) | – | – | – | MTT assay observation (THP-1 cells [1]; [9]): cell death; MTT assay observation (THP-1 cells [1]; [10]): only slight cell death; concentration giving very pale blue/pink color in the β-glucuronidase assay, indicating partial cell killing ([2]; THP-1, highest drug concentration tested): 1.9 µM
2 | Nc1ccn([C@@H]2O[C@H](CO)[C@@H](O)[C@@H]2O)c(=O)n1 [Ara-C, cytosine arabinoside] | 1 µM (≈ 0.243 µg/mL) | 1 µM (≈ 0.243 µg/mL) | ≥ 1 µM | ≥ 1 µM | >1000 µM | concentration at which reduction of MTT was abrogated (THP-1 cells [3]): ≥ 1 µM; concentration at which reduction of MTT was abrogated (HL-60 cells [4]): ≥ 1 µM; β-galactosidase expression (P7.5k early/late promoter) in presence of Ara-C (KG1a cells [5]; GLV-1h68 MOI 10, 1 nM-1 mM Ara-C, 24 hours, X-gal, visual assessment): equally robust in the presence or absence of Ara-C; effect on β-glucuronidase expression (P11k late promoter) (KG1a cells [5]; GLV-1h68 MOI 10, 1 nM-1 mM Ara-C, 24 hours, X-gluc, visual assessment): dose-dependent inhibition; concentration at which late viral transcription, as measured by β-glucuronidase expression, was abrogated (KG1a cells [5]; GLV-1h68 MOI 10, 24 hours, 'as low as'): ≥ 100 nM; β-galactosidase expression (P7.5k early/late promoter) in presence of Ara-C (HL-60 cells [6]; HL-60, GLV-1h68 MOI 10, 1 nM-1 mM Ara-C, 24 hours, X-gal, visual assessment): equally robust in the presence or absence of Ara-C; effect on β-glucuronidase expression (P11k late promoter) (HL-60 cells [6]; HL-60, GLV-1h68 MOI 10, 1 nM-1 mM Ara-C, 24 hours, X-gluc, visual assessment): dose-dependent inhibition; concentration at which β-glucuronidase expression was undetectable by eye (complete abrogation of viral late transcription) (HL-60 cells [6]; HL-60, GLV-1h68 MOI 10, 24 hours, printed as 1 mM to 1 μM): ≥ 1 µM; concentration at which reduction of MTT was abrogated (KG1a cells [7]): ≥ 100 nM; β-galactosidase expression (P7.5k early/late promoter) in presence of Ara-C (THP-1 cells [8]; THP-1, GLV-1h68 MOI 10, 1 nM-1 mM Ara-C, 24 hours, X-gal, visual assessment): equally robust in the presence or absence of Ara-C; effect on β-glucuronidase expression (P11k late promoter) (THP-1 cells [8]; THP-1, GLV-1h68 MOI 10, 1 nM-1 mM Ara-C, 24 hours, X-gluc, visual assessment): dose-dependent inhibition; concentration at which β-glucuronidase expression was undetectable by eye (complete abrogation of viral late transcription) (THP-1 cells [8]; THP-1, GLV-1h68 MOI 10, 24 hours, printed as 1 mM to 1 μM): ≥ 1 µM; β-galactosidase expression ([2]; THP-1, all concentrations less than the maximal concentration of the drug tested): unaffected; concentration at which limited inhibition of β-galactosidase expression was seen ([2]; THP-1, highest concentration of the drug tested): 1 mM
3 | N.N.[Cl][Pt][Cl] [Cisplatin, cisplatin] | 33 µM | – | – | – | – | MIC MTT, qualifier in words (THP-1 cells [1]; THP-1, line below the MIC MTT value): partial; MTT assay observation (THP-1 cells [1]; [9]): cell death; MTT assay observation (THP-1 cells [1]; [10]): only slight cell death
4 | O=P1(N(CCCl)CCCl)NCCCO1 (stereo not drawn) [Cyclophosphamide, cyclophosphamide] | >100 µM | >100 µM | above 100 μM | above 100 μM | – | concentration at which β-galactosidase expression was inhibited ([2]; THP-1, Example 3): above 100 μM
5 | COc1cccc2c1C(=O)c1c(O)c3c(c(O)c1C2=O)C[C@@](O)(C(C)=O)C[C@@H]3O[C@H]1C[C@H](N)[C@H](O)[C@H](C)O1 [Daunorubicin, daunorubicin] | 0.01 µM (≈ 0.00528 µg/mL) | 0.01 µM (≈ 0.00528 µg/mL) | ≥ 10 µM | – | >0.1 µM | concentration at which some inhibition of β-galactosidase expression was seen ([2]; THP-1, Example 3): greater than 100 nM; concentration at which dose-dependent inhibition of β-glucuronidase expression starts [2, 11]: ≥ 10 nM
6 | CC(=O)O[C@@]12CO[C@@H]1C[C@H](O)[C@@]1(C)C(=O)[C@H](O)C3=C(C)[C@@H](OC(=O)[C@H](O)[C@@H](NC(=O)OC(C)(C)C)c4ccccc4)C[C@@](O)([C@@H](OC(=O)c4ccccc4)[C@H]21)C3(C)C [Docetaxel, docetaxel] | 46 µM (≈ 37.2 µg/mL) | 460 µM (≈ 372 µg/mL) | 46 µM | 460 µM | >46 µM | concentration at which β-galactosidase expression was inhibited ([2]; THP-1, Example 3): ≥ 46 µM
7 | COc1cc([C@@H]2c3cc4c(cc3[C@@H](O[C@@H]3O[C@@H]5CO[C@@H](C)O[C@H]5[C@H](O)[C@H]3O)[C@H]3COC(=O)[C@H]23)OCO4)cc(OC)c1O [Etopocide, etoposide] | 5 µM (≈ 2.94 µg/mL) | 5 µM (≈ 2.94 µg/mL) | – | – | >50 µM | –
